# Measured values reported in paper PMC2731040 (BMC Clinical Pharmacology, 2009).
# Legend:
# [1] = Plasma pharmacokinetics of cocaine and benzoylecgonine after IV cocaine-d5 infusion; conditions: plasma, mean ± SD; for half-life / AUC(0-t) / AUC(0-inf) / clearance / Tmax / Vd / Cmax / k el: human, in vivo; for half-life: (t1/2)z; for clearance: CL; for Vd: Vz; for Cmax: iv, cocaine-d5 IV 0.5 mg/kg over 10 min then 2 mg/kg over 4 h; for k el: λz
# Procedure: In this open-label, unblinded study, a 0.5 mg/kg intravenous loading dose of cocaine-d5 HCl over 10 minutes was followed by a slow 4 hour constant rate cocaine-d5 infusion of 2.0 mg/kg(~175 mg for a 70 kg person). […] When this method of cocaine administration is utilized, a larger dose can be given over a longer period of time and approximates frequently reported patterns of cocaine use. This method also allowed for close monitoring and termination of the infusion if untoward psychiatric or cardiovascular effects occurred.
# For both cocaine infusions (sessions 1 and 2), plasma samples for cocaine and metabolites (~6 ml) were obtained 5 minutes before and 10 minutes, 0.5, 1, 1.5, 2, 4, 4.25, 4.5, 5, 6, 8, 12, 21, 27, 33, and 45 hours after each cocaine infusion.
# Plasma concentrations of cocaine and benzoylecgonine were measured in our laboratory using a method we developed. The method allows for simultaneous determination of cocaine, benzoylecgonine, and deuterium-labeled analogs [cocaine-d5 and benzoylecgonine-d5 (BE-d5)] by using combined gas chromatography-mass spectrometry (GC-MS). Differently labeled stable isotope analogs were used as internal standards. The calibration curves were from 5 to 2,000 ng/mL for cocaine-d5 and 10 to 2,000 ng/mL for BE-d5. Lower limits of quantitation (LLOQ) were 5 ng/ml (cocaine-d5) and 10 ng/ml (BE-d5) in plasma. Qualitative urine benzoylecgonine was measured by Northwest Toxicology Laboratory, Salt Lake City, Utah, using the Roche Diagnostics Online® immunoassay.
# The plasma concentration-time profiles for cocaine and benzoylecgonine (BE) were analyzed by non-compartmental methods, utilizing the pharmacokinetic data analysis program WinNonlin Pro, version 3.0 [31].
# The area under the plasma concentration-time curve was calculated using the linear trapezoidal rule up to the maximum plasma concentration, and thereafter using the logarithmic trapezoidal rule to the last measurable plasma concentration. The remaining area was extrapolated to infinity by dividing the last appropriate plasma concentration by the terminal exponential rate constant.
# Maximum plasma concentration (Cmax) and time of maximum plasma concentration (Tmax) were determined by visual inspection of data. "Terminal" exponential half-life [(t1/2)z] was calculated from log-linear regression of "terminal" exponential phase data points. Cocaine clearance (CL) and terminal exponential volume of distribution (Vz) were calculated by conventional equations: CL = [Dose/Area under the curve (AUC)0-∞] and Vz = CL/λz, respectively, where λz ("terminal" exponential rate constant) = ln2/(t1/2)z. […] Amount of BE in urine samples was calculated by multiplying concentration by volume.
# noradrenergic tone = assay: Urinary MHPG-S excretion (surrogate for noradrenergic tone, MAO-A metabolite); format: in vivo, human
# Text: (§1) The interactions between MAO-A inhibitors and cocaine administered are largely unexplored. […] Therefore, measurement of dopaminergic and noradrenergic tone may be important in predicting toxic events. We measured dopaminergic tone with the surrogate marker of plasma HVA, the major brain metabolite of dopamine, and serum levels of prolactin, a hormone whose secretion is inhibited by dopamine. The surrogate for noradrenergic tone was urine concentrations of MHPG-S. In order to assess the degree of MAO-A and MAO-B inhibition, we assayed concentrations of a substrate of MAO-B, phenylethylamine (PEA). PEA would be expected to increase with MAO-B inhibition, and concentrations of MHPG-S, which is a metabolite of norepinephrine produced by MAO-A primarily in the brain [20], would be expected to decrease.
# When subjects were in the GCRC, all urine was collected and volumes recorded. Following each cocaine infusion, urine was collected in fractions from 0 to 24, 24 to 48, and 48 to 72 hours (timed from the start of the infusion). Samples were then frozen at -70°C until analyzed. […] A qualitative screen for drugs of abuse was obtained every other day for the entire study period.
# Concentrations of MHPG-S in urine were determined using LC-MS/MS [29]. […] As urinary creatinine excretion is directly related to glomerular filtration and renal blood flow, and urinary creatinine excretion is relatively constant (~1 gm/day), it can be used to estimate concentrations of a substance during a 24 hour urine collection period. Using ratios of the concentrations of MHPG-S to creatinine obtained from assays of these spot urine samples, MGPG-S concentrations during the outpatient period (when subjects would be unlikely to provide accurate 24 hour urine collections) were compared to those from urine samples on inpatient days.
# dopaminergic tone = assay: Serum prolactin and plasma HVA (surrogate markers of dopaminergic tone); format: in vivo, human; conditions: both challenge sessions; change within each session not significant
# Text: as §1
# [2] = test system: nondependent cocaine-experienced subjects; assay: Adverse events and cardiovascular safety monitoring; format: in vivo, human
# Procedure: Heart rate, blood pressure, respiration rate, skin and core temperature were recorded at specific times during the study. During infusions, measures were obtained pre-dose and at 0.17, 0.5, 0.75, 1, 1.5, 2, 2.5, 3, 3.5, 4, 4.25, 4.5, 5, 6, 8, 12, 18, 24, 36, 48, and 72 hours after dosing. The electrocardiogram was monitored continuously during the infusion and for 4 hours after the termination of the intravenous cocaine infusion. EKG tracings were recorded at each data collection point.
# [3] = humans; cited from earlier work
smiles,measurement,setting,value
"COC(=O)[C@H]1[C@@H](OC(=O)c2ccccc2)C[C@@H]2CC[C@H]1N2C [Cocaine, cocaine]",AUCext,[1]; Pre Selegiline (session 1),1.40 ± 1.03%
same,AUCext,[1]; With Selegiline (session 2),1.78 ± 1.87%
same,half-life,[1]; Pre Selegiline (session 1),1.71 ± 0.81 h
same,half-life,[1]; With Selegiline (session 2),1.57 ± 0.3 h
same,AUC(0-t),[1]; Pre Selegiline (session 1),2640 ± 55.6 ng·h/mL
same,AUC(0-t),[1]; With Selegiline (session 2),2360 ± 499 ng·h/mL
same,AUC(0-inf),[1]; Pre Selegiline (session 1),2680 ± 1470 ng·h/mL
same,AUC(0-inf),[1]; With Selegiline (session 2),2400 ± 487 ng·h/mL
same,clearance,[1]; Pre Selegiline (session 1),18.3 ± 6.17 mL/min/kg
same,clearance,[1]; With Selegiline (session 2),18 ± 3.34 mL/min/kg
same,Tmax,[1]; Pre Selegiline (session 1),2.66 ± 1.74 h
same,Tmax,[1]; With Selegiline (session 2),2.27 ± 2.04 h
same,Vd,[1]; Pre Selegiline (session 1),2.49 ± 0.88 L/kg
same,Vd,[1]; With Selegiline (session 2),2.44 ± 0.64 L/kg
same,Cmax,[1]; Pre Selegiline (session 1),721 ± 773 ng/mL
same,Cmax,"[1]; With Selegiline (session 2, after one week STS 6 mg/24 hours)",640 ± 332 ng/mL
same,k el,[1]; Pre Selegiline (session 1),0.000126 s⁻¹
same,k el,[1]; With Selegiline (session 2),0.000127 s⁻¹
same,Total Amount of MHPG-S Excreted in the 24 Hour Urine Collection,noradrenergic tone; Day 3–4 After Cocaine Preselegiline,1.44 ± 0.43 mg
same,Urine MHPG-S/creatinine concentration ratios vs the day before cocaine challenge,"noradrenergic tone; second day after the first cocaine challenge, p < 0.05",increased significantly
same,"Serum prolactin levels after cocaine, change within session",dopaminergic tone,numerically decreased
same,Adverse events,"[2]; STS 6 mg/24 hours, cocaine-d5 IV 2.5 mg/kg over 4 hours",One subject vomited
same,Adverse effects of cocaine following selegiline administration,[2]; cocaine infusion after one week of STS,No significant adverse effects
same,half life of acute pharmacokinetic and dynamic effects,[3],about 1 hour
